Assay results as given in the NIST ThermoML archive (doi:10.1016/j.jct.2006.10.008).

How the values were obtained:
[1] = excess molar enthalpy (molar enthalpy of mixing); xn = mol fraction of the nth substance listed; conditions: 298.15 K, 101 kPa, Liquid, Calvet calorimetry
[2] = xn = mol fraction of the nth substance listed; conditions: 298.15 K, 101 kPa, Liquid

CCCCOC=O [butyl methanoate] + ClCCCl
Conditions	excess molar enthalpy [kcal/mol]	mass density [kg/m3]
[1], x1 = 0.0414	-0.00954	–
[1], x1 = 0.0923	-0.0212	–
[1], x1 = 0.1436	-0.0343	–
[1], x1 = 0.1984	-0.0481	–
[1], x1 = 0.2527	-0.0619	–
[1], x1 = 0.3048	-0.075	–
[1], x1 = 0.3561	-0.08504	–
[1], x1 = 0.4041	-0.09405	–
[1], x1 = 0.4493	-0.1003	–
[1], x1 = 0.4629	-0.1006	–
[1], x1 = 0.5202	-0.1025	–
[1], x1 = 0.5856	-0.1005	–
[1], x1 = 0.6594	-0.09278	–
[1], x1 = 0.7406	-0.0785	–
[1], x1 = 0.829	-0.0569	–
[1], x1 = 0.9165	-0.0319	–
[2], x1 = 0.0446	–	1222.63
[2], x1 = 0.087	–	1201.85
[2], x1 = 0.1314	–	1180.87
[2], x1 = 0.1786	–	1159.63
[2], x1 = 0.2266	–	1138.77
[2], x1 = 0.277	–	1117.89
[2], x1 = 0.3837	–	1076.58
[2], x1 = 0.4403	–	1056.07
[2], x1 = 0.5	–	1035.47
[2], x1 = 0.5622	–	1014.9
[2], x1 = 0.6248	–	995.09
[2], x1 = 0.6931	–	974.48
[2], x1 = 0.7645	–	953.92
[2], x1 = 0.8389	–	933.51

ClCCCCCl [1,4-dichlorobutane] + CCCCOC=O
Conditions	excess molar enthalpy [kcal/mol]	mass density [kg/m3]
[1], x2 = 0.0614	-0.00275	–
[1], x2 = 0.1294	-0.00724	–
[1], x2 = 0.1998	-0.0131	–
[1], x2 = 0.2674	-0.0218	–
[1], x2 = 0.3309	-0.0293	–
[1], x2 = 0.3925	-0.039	–
[1], x2 = 0.4407	-0.0473	–
[1], x2 = 0.4897	-0.0533	–
[1], x2 = 0.5404	-0.0542	–
[1], x2 = 0.5969	-0.0539	–
[1], x2 = 0.6592	-0.0513	–
[1], x2 = 0.7249	-0.0461	–
[1], x2 = 0.795	-0.0386	–
[1], x2 = 0.8656	-0.028	–
[1], x2 = 0.9356	-0.0149	–
[2], x2 = 0.0624	–	1118.28
[2], x2 = 0.1208	–	1103.88
[2], x2 = 0.1776	–	1089.9
[2], x2 = 0.2372	–	1075.3
[2], x2 = 0.346	–	1048.8
[2], x2 = 0.4096	–	1033.38
[2], x2 = 0.4679	–	1019.27
[2], x2 = 0.5213	–	1006.41
[2], x2 = 0.6434	–	977.11
[2], x2 = 0.7039	–	962.64
[2], x2 = 0.7624	–	948.68
[2], x2 = 0.821	–	934.76
[2], x2 = 0.8802	–	920.71
[2], x2 = 0.9398	–	906.62

ClCCCCCl [1,4-dichlorobutane] + COC=O
Conditions	excess molar enthalpy [kcal/mol]	mass density [kg/m3]
[1], x2 = 0.1071	0.0424	–
[1], x2 = 0.2326	0.08	–
[1], x2 = 0.3559	0.1062	–
[1], x2 = 0.4541	0.1196	–
[1], x2 = 0.5426	0.1239	–
[1], x2 = 0.5971	0.123	–
[1], x2 = 0.6515	0.1218	–
[1], x2 = 0.7083	0.1165	–
[1], x2 = 0.7662	0.108	–
[1], x2 = 0.8103	0.09393	–
[1], x2 = 0.8803	0.0755	–
[1], x2 = 0.9274	0.0548	–
[1], x2 = 0.9702	0.032	–
[2], x2 = 0.1002	–	1123.14
[2], x2 = 0.1967	–	1112.22
[2], x2 = 0.2763	–	1102.15
[2], x2 = 0.3523	–	1092.16
[2], x2 = 0.4263	–	1081.69
[2], x2 = 0.4898	–	1072.05
[2], x2 = 0.5567	–	1061.23
[2], x2 = 0.615	–	1051.3
[2], x2 = 0.6692	–	1041.41
[2], x2 = 0.7199	–	1031.71
[2], x2 = 0.7663	–	1022.34
[2], x2 = 0.8116	–	1012.65
[2], x2 = 0.8535	–	1003.36
[2], x2 = 0.8907	–	994.7
[2], x2 = 0.9302	–	985.1
[2], x2 = 0.9657	–	976.07
